Data set [1] has as its system prostate. Kind of data set: Intraprostatic injection in rats: prostate weight / size. Also on record: species or system Sprague-Dawley rats. To be noted: rat, in vivo.
The test system of data set [2] is prostate. The experiment in a line: Histology (hematoxylin and eosin) of injected rat prostates. Also on record: species or system Sprague-Dawley rats. The settings on record: in vivo. The method, then: (§1) Rats were anesthetized with isoflurane gas. The hair was shaved and the incision region was scrubbed with Betadine. A lower abdominal midline incision was made providing exposure to the bladder and prostate. 0.1 mL of toxin or saline was injected into each right and left ventral lobe using a 30-gauge needle. The abdominal wall and skin were then closed in two layers. After 2 weeks the animals were sacrificed by an overdose of sodium Pentobarbital (200 mg/kg i.p.) The prostates were removed en bloc along with the bladder and urethra. The prostates were then carefully dissected from the bladder neck and urethra, weighed and fixed in 10% phosphate buffered formalin.
The fixed prostates were embedded in paraffin and sectioned at a thickness of 4 microns. Sections were stained with hematoxylin and eosin and analyzed for morphology. […] Under 400× magnification, four random areas of the ventral prostate from each animal were examined and the total numbers of stained and unstained cells were counted in the entire field. […] The mean number of stained and unstained cells was determined for each animal.

Data set [3] has as its system ventral prostate. The experiment in a line: TUNEL stain for apoptosis in prostate sections. To be noted: rat, in vivo. Also on record: species or system Sprague-Dawley rats. The method, then: (§2) The fixed prostates were embedded in paraffin and sectioned at a thickness of 4 microns. Sections were stained with hematoxylin and eosin and analyzed for morphology. Immunohistochemical analysis was performed on prostate sections for evidence of apoptosis with TUNEL stain (terminal deoxynucleotidyl-mediated deoxyuridine triphosphate nick end labeling) using a commercially available kit (GenScript Corporation, Piscataway, N.J.), and for cellular proliferation with PCNA stain (proliferating cell nuclear antigen) using a commercially available kit (Invitrogen Corporation, Camarillo, Calif.). A stained slide from each animal was randomly assigned a number in a blind fashion. Under 400× magnification, four random areas of the ventral prostate from each animal were examined and the total numbers of stained and unstained cells were counted in the entire field. This was done for both TUNEL and PCNA stained slides for each animal. The mean number of stained and unstained cells was determined for each animal.

For data set [4], the system named is ventral prostate. The experiment in a line: PCNA stain for cellular proliferation in prostate sections. To be noted: rat, in vivo. Also on record: species or system Sprague-Dawley rats. As for the experimental part: as §2
A short description of data set [5]: Body weight and complications after intraprostatic injection. Further details: species or system Sprague-Dawley rats. The settings on record: rat, in vivo.
From the text: Eighteen adult male Sprague-Dawley rats (420-560 g) were used in this study. The animals were housed in the animal care center under controlled lighting conditions (lights on 6 AM-6 PM), with food and water always available. The animals were monitored for behavior, food and water intake, and weight. Subsequent experiments were approved by the University of Toledo's Institutional Animal Care and Use Committee.
as §1

Data set [6] relates to prostate. To be noted: rat, in vivo; cited from earlier work.

On to Botulinum toxin type A [BTA], for which, in the data set on prostate [1], the “Prostate Wt (grams) Mean” value came to 2.627 grams, the “Prostate Wt /100 g Body Wt Mean” value worked out at 0.586 and the “prostate size / weight (in words)” value was “did not show a statistically significant decrease in prostatic weight”. The “histology of prostate (in words)” value in the data set on prostate [2] is “prostatic atrophy of the glandular component with flattening of the epithelial lining”. Also, in the data set with ventral prostate [3], the “TUNEL Assay # of Apoptotic Cells Mean” value was 211.1 and the “number of apoptotic cells, TUNEL staining (in words)” value is “significant increase in the number of apoptotic cells”. Further, in the data set with ventral prostate [4], the “PCNA Assay # of Proliferating Cells Mean” value amounted to 26.2 and the “cellular proliferation, PCNA staining (in words)” value was “significant increase in cellular proliferation”. Moreover, in data set [5], the “2 wks Post-Injection Wt (grams) Mean” value was 449 grams, the “Change in Body Weight Mean” value was −51.667, the “Pre-Injection Wt (grams) Mean” value is 501 grams and the “body weight (in words)” value is “significant loss in body weight”. For the same substance, in the data set with prostate [6], the “prostatic weight (Doggweiler et al.)” value is reported as “decrease in prostatic weight”.

The record behind these values is patent US8133491B1, “Compositions and methods for treatment of hyperplastic disorders” (priority 2009, dated 2012).
